Data on 8 compounds can be found in patent US11447512B2 (Shenzhen TargetRx, Inc., priority 2017, dated 2022).

In general, CC50 refers to the concentration that lowers cell viability or growth by half. One may read the EC50 as the midpoint of the concentration-response curve.

Counter-ions that a name gives are not always drawn. Like-named read-outs stand apart in the source and are kept apart here.

Series [1] in a line: Cytotoxicity in uninfected MT-4 cells (CellTiter-glo). The format is cell-based. Particulars: human, read-out: HIV activity and cytotoxicity data CC50; for CC50: 5 days. For orientation: In ATP-based viability assays light output follows the ATP content of the culture.
Protocol: The data was analyzed by GraphPad Prism software, and the curve was fitted and EC50 and CC50 values were calculated. […] CC50 refers to the inhibitory concentration that reduces the cell growth or viability of uninfected cells by 50%.
The next series has as its system HIV-1. In words: microbe, parasite or virus in culture. Conditions: Human immunodeficiency virus 1, MT4, 120 h, read-out: HIV activity and cytotoxicity data EC50 (nM). Here is the method:
The data was analyzed by GraphPad Prism software, and the curve was fitted and EC50 and CC50 values were calculated. EC50 refers to the effective concentration that inhibits 50% virus production, 50% virus infectivity, or 50% virus-induced cellular effects. CC50 refers to the inhibitory concentration that reduces the cell growth or viability of uninfected cells by 50%.
Compound treatment: the test compounds and the reference compounds were 2-fold diluted with DMSO and added to the cell culture plate. The test compounds and the reference compounds were tested at 8 concentrations in duplicate.
Viral infection and cell treatment: HIV-1 and MT-4 cells were co-incubated at 37° C., in an incubator with 5% CO2 for 1 h. The infected cells were then seeded in a cell culture plate at a certain density. The final concentration of DMSO in the cell culture medium was 0.5%. The cells were incubated at 37° C., in an incubator with 5% CO2 for 5 days. The cells tested in the cytotoxicity assay were uninfected MT-4 cells, and other test conditions were with the same as that of the antiviral activity assay.
The activity assay of the cell: the cell viability was tested by using cell viability assay Reagent CellTiter-glo (Promega). The raw data was used for calculating the anti-HIV-1 activity and cytotoxicity of the Compounds.

A short description of series [2]: Rat liver microsome metabolic stability. Conditions: SD, pH 7.4, 1 μM compound, 0.5 mg/mL protein, NADPH; for microsomal CLint / microsomal CLint at 1 μM: read-out: Rat liver microsome experiment CLint; for half-life / half-life at 1 μM: read-out: Rat liver microsome experiment t1/2. The format is in vitro ADME. As to the method: (§1) Microsomal experiments: human liver microsomes: 0.5 mg/mL, Xenotech; rat liver microsomes: 0.5 mg/mL, Xenotech; coenzyme (NADPH/NADH): 1 mM, Sigma Life Science; magnesium chloride: 5 mM, 100 mM phosphate buffer (pH 7.4).
(§2) Preparation of stock solution: powder of Example compounds were precisely weighed and dissolved in DMSO to 5 mM.
(§3) Preparation of phosphate buffer (100 mm, pH7.4): 0.5M pre-formulated potassium dihydrogen phosphate (150 ml) and 0.5M potassium hydrogen phosphate (700 ml) were mixed well. The pH of the mixture was then adjusted to 7.4 with 0.5M potassium hydrogen phosphate solution. The resulting solution was 5-fold diluted with ultrapure water before use, and magnesium chloride was added to the solution, affording a phosphate buffer (100 mm), containing potassium phosphate (100 mM), magnesium chloride (3.3 mM), pH 7.4.
(§4) A NADPH regeneration system solution (containing 6.5 mM NADP, 16.5 mM G-6-P, 3 U/mL G-6-P D, 3.3 mM magnesium chloride) was formulated, which was placed on wet ice before use.
(§5) Preparation of stop solution: 50 ng/mL of propranolol hydrochloride and 200 ng/mL of tolbutamide (internal standard) in acetonitrile. 25057.5 μL of phosphate buffer (pH 7.4) was placed to a 50 mL centrifuge tube, and 812.5 μL human liver microsomes were added to the tube, which were mixed well to give a protein concentration of 0.625 mg/mL liver microsomes diluent. 25057.5 μL of phosphate buffer (pH 7.4) was placed to a 50 ml centrifuge tube, and 812.5 μL SD rat liver microsomes were added to the tube, which were mixed well to give a protein concentration of 0.625 mg/mL liver microsomes diluent.
(§6) Incubation of the sample: the stock solution of the corresponding compounds was diluted to 0.25 mM with 70% acetonitrile in water as a working solution for later use. 398 μL of human liver microsomes dilution or rat liver microsomes dilution was added into 96-well incubation plate (N=2), and 2 μL of 0.25 mM working solution was added to the plate, which were mixed well.
(§7) Metabolic stability assay: 300 μL of pre-chilled stop solution was added to each well of a 96-well deep-well plate and the plate was placed on ice as a stop plate. The 96-well incubation plate and NADPH regeneration system were placed in a 37° C. water bath, shaked at 100 rpm, pre-incubated for 5min. 80 μL of incubation solution was taken from each well of the incubation plate and was added to the stop plate, which were mixed well. 20 μL of NADPH regeneration system solution was supplemented into the mixture to form the 0 min sample. Then 80 μL of NADPH regeneration system solution was added to each well of the incubation plate to initiate the reaction and start timing. The reaction concentration of the corresponding compound was 1 μM, and the protein concentration was 0.5 mg/mL. At 10, 30, and 90 min, 100 μL of the reaction solution was added to the stop plate and vortexed for 3 min to quench the reaction. The stop plate was centrifuged at 5000×g at 4° C. for 10 min. 100 μL of supernatant was taken into a 96-well plate containing 100 μL of distilled water, which were mixed well. LC-MS/MS was used for sample analysis.
(§8) Data analysis: The peak area of the corresponding compounds and internal standard was detected by LC-MS/MS system, and the peak area ratio of compounds to internal standard was calculated. The slope was measured by plotting the natural log of the percentage of the remaining amount of the compounds versus time, and t1/2 and CLint were calculated according to the following formula, where V/M is equal to 1/protein concentration.

The next series relates to HBV. Put plainly: In vitro anti-HBV activity in HepG2.2.15 cells (HBV DNA by quantitative PCR). The format is cell-based. Conditions: Hepatitis B virus. Here is the method: Experimental method: anti-HBV activity of compounds was detected by Bright-Glo (Promega) luciferase.
Anti-cell viability assay: in vitro anti-hepatitis b virus activity of Example compounds was tested in HepG2.2.15 cells with TDF as a positive control compound. Cells were seeded into a 96-well plate on the first day; the compounds were added to treat the cells on the next day; and a new culture medium containing the compounds was replaced on the fifth day. On the eighth day, the supernatant was collected for DNA extraction. The content of HBV DNA was detected by quantitative PCR. Both test compound and TDF were subjected to a 3-fold serial dilution to get 8 concentration points in duplicate. The final concentration of DMSO in the culture medium was 0.5%. The formula for calculating the percentage of inhibition is as follows: Inhibition rate=(1−copy number of HBV in sample/copy number of HBV in DMSO control group)×100%
EC50 is analyzed by Graphpad Prism software (four parameter logistic equations), wherein I represents EC50≤50 nM, II represents 50 nM≤EC50≤200 nM, III represents 200 nM<EC50≤500 nM, IV represents EC50>500 nM (as shown in Table 1 below).

The nature of series [3]: Human liver microsome metabolic stability. Type of series: in vitro ADME. Conditions: pH 7.4, 1 μM compound, 0.5 mg/mL protein, NADPH; for microsomal CLint / microsomal CLint at 1 μM: read-out: Human liver microsome experiment CLint; for half-life / half-life at 1 μM: read-out: Human liver microsome experiment t1/2. Here is the method:
as §1, §2, §3, §4, §5, §6, §7, §8
Background: Liver microsomes are a subcellular fraction often used to study metabolism.

Series [4] can be described thus: Cytotoxicity experiment of the anti-HBV test (Cell-titer Blue). Type of series: cell-based. Particulars: human, six days after treatment.
For series [5] the following is noted: relative to TDF; cited from earlier work.
For series [6] the following is noted: relative to TDF; cited from earlier work. This is another data set of the same source.
The mark [7] stands for this setting: HepG2.2.15 cells, HBV DNA in supernatant on the eighth day, read-out: HBV activity and cytotoxicity data EC50.

Take `CCCCCCCCCCCCCCCCOCCCOP(=S)(CO[C@H](C)Cn1cnc2c(N)ncnc21)OCOC(=O)OC(C)C` (stereo partly drawn) [Compound T-4, (R)-9-{2-[(hexadecyloxypropyl)(isopropylcarbonatemethyl)thiophosphorylmethoxy]propyl}adenine]: the CC50 in series [1] and in series [4] was above 50 µM in each case. The EC50 in the series with HIV-1 and with HBV (setting [7]) was above 500 nM throughout. Also, the microsomal CLint amounted to 68.5 µL/min/mg in series [2] (microsomes) and 116 µL/min/mg in series [3] (microsomes). Moreover, the half-life worked out at 20.2 min in series [2] (microsomes) and 11.9 min in series [3] (microsomes).
As to `CCCCCCCCCCCCCCCCOCCCOP(=O)(CO[C@H](C)Cn1cnc2c(N)ncnc21)N[C@@H](C)C(=O)SC(C)C` (stereo partly shown) [Compound T-7], the CC50 at 5 days in series [1] is 3 to 10 µM. Moreover, the EC50 in the series with HIV-1 is below 5 nM; in the series with HBV (setting [7]) it was 50 to 200 nM. In addition, the values for the microsomal CLint at 1 μM in series [2] (rat liver microsomes) and in series [3] (human liver microsomes) were 50.8 µL/min/mg and 84.4 µL/min/mg, respectively. For the same compound, the half-life at 1 μM was 27.3 min in series [2] (rat liver microsomes) and 16.4 min in series [3] (human liver microsomes). This compound also displayed a CC50 at 6 days in series [4] (HepG2.2.15 cells) of 7 to 50 µM.
For the compound `CCCCCCCCCCCCCCCCOCCCOP(O)(=S)CO[C@H](C)Cn1cnc2c(N)ncnc21` (stereo partly shown) [Compound T-1], the CC50 in series [1] is 3 to 10 µM; in series [4], 7 to 50 µM. The EC50 with HIV-1 was 5 to 20 nM; in the series with HBV (setting [7]), below 50 nM. Moreover, the microsomal CLint in series [2] (microsomes) came out at 5.6 µL/min/mg; in series [3] (microsomes) it was 45.6 µL/min/mg. The half-life in series [2] (microsomes) was found to be 249 min; in series [3] (microsomes) it was 3.04 min.
With `CC(C)OC(=O)[C@H](C)NP(=S)(CO[C@H](C)Cn1cnc2c(N)ncnc21)Oc1ccccc1` (stereo partly drawn) [Compound T-3, 9-{(R)-2-[({[(S)-1-(isopropoxycarbonyl)ethyl]amino}phenoxythiophosphoryl)methoxy]lpropyl}adenine], in series [1], the CC50 at 5 days fell in the range of 3 to 10 µM. The EC50 with HIV-1 is 5 to 20 nM; in the series with HBV (HepG2.2.15, read-out: HBV activity and cytotoxicity data EC50 (nM)) it was 50 to 200 nM. The results for the microsomal CLint at 1 μM in series [2] (microsomes) and in series [3] (microsomes) were 82.5 µL/min/mg and 285 µL/min/mg, respectively. Moreover, the half-life at 1 μM in series [2] (microsomes) turned out to be 16.8 min; in series [3] (microsomes), 4.9 min. For the same compound, the CC50 at 6 days in series [4] was above 50 µM.
On to `CC(=O)SCCOP(=O)(CO[C@H](C)Cn1cnc2c(N)ncnc21)OCOC(=O)OC(C)C` (stereo partly drawn) [Compound T-8, (R)-9-{2-[(acetylsulfanylethyl)(isopropylcarbonatemethyl)phosphorylmethoxy]propyl}adenine], for which the CC50 at 5 days in series [1] was in the range of 10 to 50 µM. Further, the EC50 lay in the range of 20 to 100 nM in the series with HIV-1 and 200 to 500 nM in the series on HBV (setting [7]). For the same compound, the figures for the microsomal CLint at 1 μM in series [2] (rat liver microsomes) and in series [3] (human liver microsomes) were 92.7 µL/min/mg and 84.1 µL/min/mg, respectively. Further, the half-life at 1 μM in series [2] (rat liver microsomes) was 14.9 min; in series [3] (human liver microsomes), 16.5 min. This compound displayed a CC50 at 6 days in series [4] (HepG2.2.15 cells) above 50 µM.
With `CCCCCCCCCCCCCCCCOCCCOP(=O)(CO[C@H](C)Cn1cnc2c(N)ncnc21)OCOC(=O)SC(C)C` (stereo partly drawn) [Compound T-5, (R)-9-{2-[(hexadecyloxypropyl)(isopropylsulfanylcarbonyloxymethyl)phosphorylmethoxy]propyl}adenine], the CC50 at 5 days in series [1] was above 50 µM. Besides, the EC50 was 5 to 20 nM with HIV-1 and 50 to 200 nM in the series on HBV (setting [7]). The microsomal CLint at 1 μM in series [2] (rat liver microsomes) stood at 56.6 µL/min/mg; in series [3] (human liver microsomes), 42.7 µL/min/mg. Further, the half-life at 1 μM in series [2] (rat liver microsomes) amounted to 24.5 min; in series [3] (human liver microsomes) it was 32.5 min. Also, the CC50 at 6 days in series [4] (HepG2.2.15 cells) was above 50 µM.
Regarding `CC(C)OC(=O)[C@H](C)N[P@](=O)(CO[C@H](C)Cn1cnc2c(N)ncnc21)Oc1ccccc1` [TAF, Tenofovir Alafenamide Fumarate], the “concentration of TFV in plasma metabolized by TAF, lower than that of TDF” value in series [5] is reported as 90%. For the same compound, the “concentration of TFV in immune cells metabolized by TAF, higher than that of TDF” value in series [6] is 4 times.
On to `CCCCCCCCCCCCCCCCOCCCOP(=S)(CO[C@H](C)Cn1cnc2c(N)ncnc21)N[C@@H](C)C(=O)OC(C)C` (stereo partly shown) [Compound T-6], for which the CC50 was in the range of 3 to 10 µM in series [1] and 7 to 50 µM in series [4]. The EC50 in the series on HIV-1 was above 500 nM; in the series on HBV (setting [7]), 200 to 500 nM. Further, the microsomal CLint in series [2] (microsomes) came to 9.9 µL/min/mg; in series [3] (microsomes), 12.9 µL/min/mg. Also, the half-life was determined as 140 min in series [2] (microsomes) and 107 min in series [3] (microsomes).
